Here are results for 1 compound from publication PMC9414676, “Experimental Studies Indicate That ST-2223, the Antagonist of Histamine H3 and Dopamine D2/D3 Receptors, Restores Social Deficits and Neurotransmission Dysregulation in Mouse Model of Autism” (Pharmaceuticals, 2022).

Experiment [1] has as its system dopamine levels in BTBR mice brain. The experiment in a line: Dopamine levels by LC-MS/MS in brain regions. Format: in vivo. On the set-up: key to Dopamine level: ↔: No significant alterations; ↑: significant increase; ↑↑: additional significant increase vs. ST-2223-treated mice; ↓: significant decrease. The following applies: ARP 1 mg/kg i.p. chronic, vs VEH-treated BTBR mice. As for the experimental part:
(§1) All the mice were randomly divided into nine groups of 5–7 mice each. The mice were injected intraperitonially once daily for 21 days with different doses of ST2223 (2.5, 5, and 10 mg/kg, i.p.), ARP 1 mg/kg or vehicle (1% DMSO in 0.9% normal saline). Group I, B6 mice were injected with vehicle served as control. Group II, BTBR mice were treated with vehicle. Groups III–V, BTBR mice received i.p. injections of different doses of ST2223 (2.5, 5, and 10 mg/kg, i.p.), respectively. Group VI, BTBR mice were injected with ARP (1 mg/kg, i.p.). For abrogation studies, Group VII, BTBR mice were treated with ST2223 (5 mg/kg, i.p.) along with RAM (10 mg/kg, i.p.). Group VIII, B6 mice were co-injected with vehicle and RAM (10 mg/kg, i.p). All treatments and vehicle (VEH) were administered 30–45 min before each behavioral test. The doses of these drugs were selected based on previous reports. Behavioral testing was performed between 9:00 am and 3:00 pm in an order randomized by group and in the following sequence: social approach test (SAT) and open field locomotor test (OFL). The chronic treatment started one week before the behavioral test and was continued for a total of 21 days as described above (Figure 7). Following behavioral tests, i.e., on day 21 of systemic treatment, five of the animals were sacrificed. The animals were deeply anesthetized with pentobarbital (40 mg/kg, i.p., body weight). To wash out the blood, cardiac perfusion was carried out using 0.01 M phosphate-buffered saline (PBS) at pH 7.4. The brains were quickly removed and placed on an ice plate, where the cerebellum, hippocampus, prefrontal cortex, and striatum were excised from the brain and snap-frozen in liquid nitrogen for later LC-MS/MS analysis.
(§2) Perfusion was done on anesthetized animals using 1X PBS as described previously. Different regions of the brain were snap frozen. Frozen tissues were then weighed and homogenized in a 10-fold volume of acetonitrile. For 50mg of tissue, 500 µL of acetonitrile and Internal standard mix were added and homogenized. Homogenates were centrifuged at 15,000 rcf for 15 min at 4 °C. Tissue levels of dopamine, acetylcholine, histamine, and their metabolites were assessed using LC-MS/MS. LC-MS/MS analysis was conducted utilizing Waters BEH C18 COLUMN (2.1 × 100 mm, 1.7 µm) using Waters Acquity UPLC Binary Solvent Manager and FTN Sample Manager. The system was run in gradient mode with mobile phase A consisting of LC-MS GRADE WATER + 0.1% FORMIC ACID and mobile phase B consisting of 100% ACETONITRILE. Mobile phase was duly filtered through 0.2 µm filter and degassed ultrasonically for 15 min prior to use. Separations were performed at room temperature with 0.3 mL/min flow rate gradient starting with 90% of A for up to 0.5 min. Then, % of A was decreased gradually until it reached 20% at 2.5 min after which at 3 min %A was brought back to the initial condition and left for equilibration for 2 more minutes before the next injection (total 5 min run time). The injection volume was kept at 1 µL. Mass spectrometric detection was performed in multiple reaction monitoring (MRM) mode with positive electrospray ionization (ESI+) on Xevo TQS mass spectrometer (Waters, Milford, MA) equipped with an electrospray ionization (ESI) source and triple quadrupole mass analyzer. MRM transitions and instrument parameters were set by tuning the instrument by infusing each analyte. MRM transitions taken for quantification were 146.2 > 87.1 for Acetylcholine, 112.2 > 95.2 for Histamine, 154.1 > 137.2 for Dopamine, 150.2 > 91.3 for Acetylcholine D4, and […] > 99.3 for Histamine D4. Capillary Voltage, Source Offset, Source Temperature, De solvation Temperature, Cone Gas Flow, De solvation Gas Flow, Collision Gas Flow, Nebulizer Gas Flow were set as 3.0 (kV), 60.0 (V), 150 (°C), 550 (°C), 150 (L/Hr), 1000 (L/Hr), 0.13 (mL/min), and 7 (Bar), correspondingly. […]

The subject of experiment [2] is BTBR mice. The experiment is described as follows: Open field locomotor test (OFL), anxiety-like behavior and locomotion. The following applies: ARP 1 mg/kg i.p. chronic. Type of experiment: in vivo. As for the experimental part: as §1
Open field locomotor test (OFL) systematically assesses exploratory activity based on subjecting an animal to an unfamiliar environment whose escape is prevented by surrounding walls. It is a model of anxiety-like behavior, suitable for assessing motor activity as a reaction to an unknown environment, i.e., locomotion motivated by exploration. Both general locomotor activity and anxiety-related behaviors were assessed as the mice were placed individually inside an open field arena (45 × 45 × 30 cm) and were allowed to move freely for 10 min [80]. Mice were introduced into the center area of the arena (23 × 23 cm) and given 5 min habituation before actual behaviors recording. The overall distance moved inside the complete arena and time spent in the center and periphery was recorded for 10 min using CCD camera-assisted motion tracking equipment and software program (EthoVision 3.1, Noldus Information Technology, The Netherlands). Measurements obtained included total distance traveled and center and periphery time spent for […]. After each testing sessions, chambers we cleaned with 70% ethanol, and enough time was allowed for ethanol evaporation and odor dissipation. When evaluating the results, more time spent in the center indicated low levels of anxiety-like behaviors and total distance travelled represented locomotor activity.

In experiment [3] the test system is BTBR mice. The experiment in a line: Social approach test (SAT), social novelty preference (novel mouse vs familiar mouse). Type of experiment: in vivo. Conditions: ARP 1 mg/kg i.p. chronic, p < 0.001. As for the experimental part:
as §1
The social approach test (SAT) was performed using an automated three-chamber device (EthoVision® Software, Noldus, The Netherlands) as previously described. The transparent polycarbonate chamber is rectangular and is composed of three interconnected partitions (homemade), which are separated by two sliding doors. […] For 10 min, the test mouse was allowed to explore all three chambers and cups, and the time spent interacting with NO and NM (sniffing) was automatically recorded by EthoVision® Software. […] The study mouse is allowed to explore the three chambers for 10 min, and the time spent for interacting with both mice was automatically recorded, to assess social novelty preference. […] To allow the direct comparison of social behavior between the treated groups, the sociability index (SI) and social novelty index (SNI) were calculated with the following formula, as previously described: SI=(Time exploring NM−Time exploring NO)/(Time exploring NM+Time exploring NO) SNI=(Time exploring NM−Time exploring FM)/(Time exploring NM+Time exploring FM)

The subject of experiment [4] is acetylcholine levels in BTBR mice brain. The experiment is described as follows: Acetylcholine levels by LC-MS/MS in brain regions. The following applies: for Acetylcholine level: ARP 1 mg/kg i.p. chronic, vs VEH-treated BTBR mice. More on the design: key to Acetylcholine level: ↔: No significant alterations; ↑: significant increase; ↑↑: additional significant increase vs. ST-2223-treated mice; ↓: significant decrease. Type of experiment: in vivo. How it is done: as §1, §2

In experiment [5] the test system is prefrontal cortex of B6 mice. More on the design: method as in PMID 16023290. The following applies: 0.3 mg/kg of ARP; cited from earlier work.
For experiment [6], the system named is histamine levels in BTBR mice brain. The experiment in a line: Histamine levels by LC-MS/MS in brain regions. Format: in vivo. More on the design: key to Histamine level: ↔: No significant alterations; ↑: significant increase; ↑↑: additional significant increase vs. ST-2223-treated mice; ↓: significant decrease. Conditions: ARP 1 mg/kg i.p. chronic, vs VEH-treated BTBR mice. How it is done:
as §1, §2

For experiment [7], the system named is BTBR mice. The experiment is described as follows: Social approach test (SAT), sociability (novel mouse vs novel object). Type of experiment: in vivo. The following applies: ARP 1 mg/kg i.p. chronic. How it is done: as §1
The social approach test (SAT) was performed using an automated three-chamber device (EthoVision® Software, Noldus, The Netherlands) as previously described. The transparent polycarbonate chamber is rectangular and is composed of three interconnected partitions (homemade), which are separated by two sliding doors. In brief, after 10 min of habituation, the study mouse was placed in the central chamber with the doors opened, and the mouse was given the choice to interact with either an empty plastic cup located in one side chamber, referred to as a novel object (NO), or a similar plastic cup with an unfamiliar mouse inside it located in the opposite chamber, referred to as a novel mouse (NM), which was matched in age, sex, and strain with test mouse. To avoid innate side preferences, the plastic cup for NO and NM were randomly placed in either chamber and the placement was changed between studies and between mice. For 10 min, the test mouse was allowed to explore all three chambers and cups, and the time spent interacting with NO and NM (sniffing) was automatically recorded by EthoVision® Software. Immediately after this session, a novel mouse is kept in the empty cup and is referred to as novel mouse (NM), and the mouse in the other cup from the earlier session is referred to as familiar mouse (FM). The study mouse is allowed to explore the three chambers for 10 min, and the time spent for interacting with both mice was automatically recorded, to assess social novelty preference. Eight groups of 7 mice/group were used for the SAT. To allow the direct comparison of social behavior between the treated groups, the sociability index (SI) and social novelty index (SNI) were calculated with the following formula, as previously described: SI=(Time exploring NM−Time exploring NO)/(Time exploring NM+Time exploring NO) SNI=(Time exploring NM−Time exploring FM)/(Time exploring NM+Time exploring FM)

On to `O=C1CCc2ccc(OCCCCN3CCN(c4cccc(Cl)c4Cl)CC3)cc2N1` [ARP, aripiprazole, reference compound], for which the Dopamine level result is given as “↓^b” in experiment [1] (Cerebellum), “↓^b” in experiment [1] (Hippocampus) and “↔” in experiment [1] (Prefrontal cortex). Moreover, the “abnormal anxiety observed by BTBR mice” value in the experiment on BTBR mice [2] was “failed to restore the abnormal anxiety”. For the same compound, the “time spent in the periphery” value in the experiment on BTBR mice [2] is “no group differences”. Further, the “total distance travelled vs VEH-treated BTBR mice” value in the experiment with BTBR mice [2] (p < 0.01) is “significantly decreased the total distance travelled”. Moreover, the “preference to novel mouse (NM) over familiar mouse (FM) vs VEH-treated BTBR mice” value in the experiment on BTBR mice [3] was “enhanced preference to stranger NM over FM”. Also, the “acetylcholine levels” value in experiment [4] (ARP 1 mg/kg chronic, p < 0.05) was “signified increase in the levels of acetylcholine in the prefrontal cortex, cerebellum, and striatum tissues”. Further, the Acetylcholine level entry in experiment [4] (Cerebellum) is “↑ ^b”; in experiment [4] (Hippocampus), “↔”; in experiment [4] (Prefrontal cortex), “↑ ^b”; in experiment [4] (Striatum), “↑ ^b”. The “DA levels in dialysate” value in experiment [5] is listed as “significant increase of DA levels in dialysate”. Further, the “levels of histamine in brain regions” value in experiment [6] (p < 0.05) was “increased the levels of histamine in the cerebellum, striatum, and hippocampus”. The Histamine level result is on record as “↑ ^b” in experiment [6] (Cerebellum), “↑ ^b” in experiment [6] (Hippocampus) and “↔” in experiment [6] (Prefrontal cortex). Also, in the experiment on BTBR mice [7], the “sociability, time exploring NM compared to NO” value is “markedly increased sociability”. Moreover, the “exploring time spent with NM vs VEH-treated BTBR mice” value with BTBR mice [7] (p < 0.001) is reported as “significantly improved exploring time spent with NM”.
